Here are results for 81 molecules from the METLIN SMRT retention time set (Domingo-Almenara et al. 2019).

A short description of the series: gradient 5% acetonitrile 3 min, to 50% in 2 min, to 85% in 15 min, held 3 min, 100 µL/min. To be noted: column: Zorbax Extend-C18 2.1 x 50 mm; eluents: water / acetonitrile, 0.1% formic acid. Put shortly: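 The system's dead and dwell volumes were 40 μL and 900 μL, with a Zorbax Extend-C18 column (2.1 × 50 mm, 1.8 μm) run at 100 μL/min in water and acetonitrile containing 0.1% formic acid each. Pure standards were analyzed in mixtures of ~100 molecules by HPLC–quadrupole time-of-flight mass spectrometry in positive and negative ionization mode. Retention time was assigned from computationally picked, manually inspected adduct peaks.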
`O=C(c1cn2c(n1)CSCC2)N1CCC(Cc2ccccc2)CC1` gave an RP-LC retention time of 720 s.

For `COc1ccc2[nH]c(C)c(CCNS(=O)(=O)c3cc(OC)c(C)cc3OC)c2c1`, the RP-LC retention time came to 870 s.

As to `CCn1c(SC)nnc1-c1nn(C)c2c1CN(C(=O)CCc1ccccc1)CC2`, the RP-LC retention time is 798 s.

The molecule `CC(C)CNC(=O)Cc1nnc(-c2cccc(F)c2)o1` displayed an RP-LC retention time of 744 s.

`O=C(c1ccno1)N1CCC(c2nnc(-c3ccco3)s2)CC1` displayed an RP-LC retention time of 644 s.

With `CC(C)CNC(=O)c1ccc2c(c1)N(C)C(=O)CS2`, the RP-LC retention time stood at 708 s.

`O=C(c1cc(-c2ccco2)on1)N1CCCC(c2nnc(-c3ccccc3F)s2)C1` (stereo unspecified) came in with an RP-LC retention time of 923 s.

Regarding `Cc1ccc(CNC(=O)Nc2cnc3c(c2)CCC3)cc1`, the RP-LC retention time was 534 s.

For `COCCCNC(=O)C1CCN(Cc2cc3ccccc3n2Cc2ccccc2Cl)CC1`, the RP-LC retention time was found to be 713 s.

For `CCCn1c(=O)c(C)nc2cc(-c3noc(Cc4ccc(F)cc4)n3)ccc21`, the RP-LC retention time was 1060 s.

The molecule `CN1CCN(CCCNC(=O)CCC(=O)N2CCCn3nc(-c4cn(C)c5ccccc45)cc32)CC1` showed an RP-LC retention time of 583 s.

On to `CC1(C)C(=O)N(CC(=O)NCc2ccccc2Cl)c2ccccc21`, for which the RP-LC retention time is 881 s.

Molecule `O=c1c(S(=O)(=O)N2CCCCCC2)cccn1Cc1ccccc1F` registered an RP-LC retention time of 941 s.

`COc1ccc(CNC(=O)C2CCCN(c3cnc4nccnc4c3)C2)cc1OC` (stereo unspecified) gave an RP-LC retention time of 710 s.

Take `CCCCN(CC)C(=O)Cn1nc(Cc2ccncc2)c2ccccc2c1=O`: the RP-LC retention time was found to be 624 s.

In turn, `Cc1cc(-c2nnc(-c3ccccc3)o2)c(C)n1CC(=O)Nc1ccccc1` displayed an RP-LC retention time of 931 s.

With `CC(C)=CCN1CCC2(CCc3ccccc32)CC1`, the RP-LC retention time worked out at 775 s.

`COc1ccc(NC(=O)c2cc(C)n3nc(-c4ccco4)cc3n2)cc1F` came in with an RP-LC retention time of 1060 s.

Regarding `O=C1CC(c2noc(-c3ccc4c(c3)OCO4)n2)CN1c1ccc(F)cc1` (stereo unspecified), the RP-LC retention time amounted to 1200 s.

The molecule `CCNC(=O)C1CCN(S(=O)(=O)c2cc(-c3noc(C)n3)cs2)CC1` displayed an RP-LC retention time of 713 s.

As for `COc1ccccc1NC(=O)NC1CCN(c2cc(C)cc(C)c2)C1=O` (stereo unspecified), the RP-LC retention time is 881 s.

In the case of `O=C(C1CC1)N1CCc2sc(S(=O)(=O)NCc3ccc4c(c3)OCO4)cc2C1`, the RP-LC retention time amounted to 812 s.

For the molecule `Cc1ccc(NC(=O)C2CCCN(C(=O)C3Sc4ccccc4NC3=O)C2)c(C)c1` (stereo unspecified), the RP-LC retention time was determined as 762 s.

As for `Cc1cccc(C)c1OCC(=O)N(Cc1ccc(Br)o1)C1CCS(=O)(=O)C1` (stereo unspecified), the RP-LC retention time was 960 s.

On to `O=C(Nc1cccc2ccccc12)c1ccc(F)cc1`, for which the RP-LC retention time was 812 s.

In turn, `CCCN(C)C(=O)CCc1cc2cc(OC)ccc2[nH]c1=O` registered an RP-LC retention time of 675 s.

Take `O=C1CC(c2nc(-c3cccc(Cl)c3)no2)CN1c1ccc2c(c1)OCO2` (stereo unspecified): the RP-LC retention time was 1030 s.

`COc1cccc(NC(=O)C2CCN(c3cc(N4CCCCC4)ncn3)CC2)c1`: the RP-LC retention time came out at 708 s.

Consider `O=C(NCc1ccccc1Cl)C1CCN(c2cnc(N3CCCC3)nc2)CC1`, for which the RP-LC retention time was determined as 684 s.

In turn, `CCOC(=O)c1c(C)oc2ncnc(NC3CCCc4ccccc43)c12` (stereo unspecified) returned an RP-LC retention time of 1310 s.

`COc1ccc2c(c1)C1CC(C)(NC(=O)C1S(=O)(=O)c1ccc(C)cc1)O2` (stereo unspecified) registered an RP-LC retention time of 893 s.

As to `CC(C)c1ccc(Nc2nc3ccncc3n(Cc3ccccc3)c2=O)cc1`, the RP-LC retention time stood at 886 s.

Turning to `O=C(CN1CCN(Cc2ccc(F)cc2)C(=O)C1=O)N1CCN(Cc2ccccc2)CC1`, the RP-LC retention time turned out to be 603 s.

In turn, `COCCN1CCn2cc(S(=O)(=O)Nc3ccc(C)c(C)c3)cc2C1=O` registered an RP-LC retention time of 745 s.

`CCC(C)NC(=O)c1c2c(cn(-c3ccc(F)cc3)c1=O)C(=O)CC(C)(C)C2` (stereo unspecified): the RP-LC retention time came to 920 s.

As to `CCCNC(=O)N1CCN(c2nc3ccccc3n(Cc3ccc(C)cc3)c2=O)CC1`, the RP-LC retention time turned out to be 978 s.

`CCC1Oc2ccc(S(=O)(=O)N3CCC(C(=O)Nc4ccccc4)CC3)cc2NC1=O` (stereo unspecified) gave an RP-LC retention time of 794 s.

Regarding `CC(C)N1C(=O)C(C)(C(=O)Nc2ccc(F)c(F)c2)Oc2cccnc21` (stereo unspecified), the RP-LC retention time amounted to 1030 s.

For `Cc1ccc(-c2cn3c(CC(=O)N4CCc5ccccc54)csc3n2)cc1C`, the RP-LC retention time amounted to 901 s.

As for `CCN1C(=O)c2cc(C(=O)NCc3ccccc3Cl)nn2CC1(C)C(=O)NC1CCCC1` (stereo unspecified), the RP-LC retention time came out at 817 s.

For the molecule `CCC1(O)CCC12CCN(C(=O)c1ccsc1)CC2` (stereo unspecified), the RP-LC retention time was 716 s.

Molecule `Nc1ccc(-c2nc3ccc(-c4nc5ccc(N)cc5[nH]4)cc3[nH]2)cc1` yielded an RP-LC retention time of 568 s.

With `Cc1cc2nnc(SCC(=O)c3ccc4c(c3)OCO4)n2c2ccccc12`, the RP-LC retention time was found to be 793 s.

As for `CCCn1cc(C(=O)N2CCc3ccccc32)c2nn(-c3ccccc3)c(=O)c-2c1`, the RP-LC retention time was determined as 840 s.

As to `O=C(NC1CCCN(c2cc(-c3ccncc3)[nH]n2)C1)c1ccc2c(c1)OCO2` (stereo unspecified), the RP-LC retention time was found to be 603 s.

Regarding `COc1ccc(N2CC(c3noc(-c4ccc(F)cc4)n3)CC2=O)cc1` (stereo unspecified), the RP-LC retention time stood at 926 s.

`CCN1CCN(C(=O)C2CCCN(c3nc4ccccc4n(Cc4ccccc4)c3=O)C2)CC1` (stereo unspecified): the RP-LC retention time is 706 s.

Molecule `O=C(NCc1cccs1)C1CCCN(c2nc3ccsc3c(=O)n2Cc2ccc(F)cc2)C1` (stereo unspecified) yielded an RP-LC retention time of 899 s.

`Nc1cc(C2CCN(C(=O)Nc3ccccc3Br)CC2)no1` showed an RP-LC retention time of 706 s.

`O=C(c1cn2nc(Cl)ccc2n1)N1CCN(c2ccccc2Cl)CC1` came in with an RP-LC retention time of 922 s.

Molecule `CNC(=O)[C@@H]1CN(C(=O)CCc2nc3ccccc3s2)C[C@H]1c1n[nH]c(C)n1` came in with an RP-LC retention time of 607 s.

Molecule `CCCS(=O)(=O)N1C[C@@H](COC)[C@H](c2ccncc2)C1` showed an RP-LC retention time of 536 s.

`COc1cc(CNC(=O)CCc2ccc(C(F)(F)F)cc2)cc(OC)c1OC` had an RP-LC retention time of 809 s.

Consider `O=C(NCc1ccc(F)cc1F)c1c(O)c2cccnc2n(-c2cccc(F)c2)c1=O`, for which the RP-LC retention time is 1190 s.

As to `O=C(O)c1cnn2c(C(F)(F)F)cc(-c3ccc(F)cc3)nc12`, the RP-LC retention time is 823 s.

In turn, `CCc1cccc(NC(=O)Cn2c(C)nc3onc(C)c3c2=O)c1` had an RP-LC retention time of 861 s.

The molecule `Cc1ccc(C)c(N2CCN(C(=O)Cn3cccc3-c3nnc(C4CC4)o3)CC2)c1` yielded an RP-LC retention time of 1020 s.

The molecule `Cc1ccc(OCc2nc(C)c(C(=O)N3CCC(C(N)=O)CC3)s2)cc1` displayed an RP-LC retention time of 696 s.

`COc1ccccc1NCC(O)Cn1ccc2ccccc21` (stereo unspecified): the RP-LC retention time was 871 s.

`COc1cc2c(Nc3ccc(Br)cc3F)ncnc2cc1OCC1CCN(C)CC1` showed an RP-LC retention time of 644 s.

As for `CCCCCNC(=O)c1ccc2c(c1)CCCN2S(=O)(=O)CC`, the RP-LC retention time stood at 896 s.

`CN(Cc1ccccc1)C(=O)CC(=O)Nc1ccc2nc3n(c(=O)c2c1)CCCCC3` registered an RP-LC retention time of 702 s.

The molecule `CCCCCNC(=O)c1cnn2c(-c3ccc4c(c3)OCO4)ccnc12` had an RP-LC retention time of 1010 s.

In turn, `Cc1cc(C(N)=O)c2cc(F)ccc2n1` had an RP-LC retention time of 544 s.

Regarding `COc1ccc(C2(CNC(=O)C(=O)Nc3ccc(N4CCCC4=O)c(C)c3)CCCC2)cc1`, the RP-LC retention time came out at 909 s.

`O=C1CCc2cc(S(=O)(=O)NCc3ccccc3Cl)cc3c2N1CCC3` returned an RP-LC retention time of 863 s.

The molecule `Cc1ccccc1NC(=O)N1CCC(c2cc(N)on2)CC1` had an RP-LC retention time of 644 s.

`Cc1cc(N2CCN(c3ccccn3)CC2)n2ncc(-c3ccc(F)cc3)c2n1` displayed an RP-LC retention time of 732 s.

For the molecule `CC(C)n1cnc(S(=O)(=O)N2CCC(C(=O)NCCC3=CCCCC3)CC2)c1`, the RP-LC retention time was found to be 804 s.

The molecule `CN1CCN(C(=O)c2ccc(-c3ccc(Br)cc3)o2)CC1` returned an RP-LC retention time of 588 s.

Molecule `O=C(Nc1ccc2c(c1)OCO2)c1noc2c1CCCC2` displayed an RP-LC retention time of 883 s.

Molecule `CC(C)Oc1ccc(-c2noc(Cn3c(=O)n(C(C)C)c(=O)c4ccccc43)n2)cc1` came in with an RP-LC retention time of 1140 s.

Consider `O=C(c1csc(-c2ccc(N3CCSCC3)nc2)n1)N1CCC2(CC1)OCCO2`, for which the RP-LC retention time was 822 s.

As for `O=C(NC1CCN(C(=O)c2cn(-c3ccc(Cl)cc3)nn2)CC1)c1cccs1`, the RP-LC retention time was determined as 628 s.

`COc1cccc(CNC(=O)C2CCCN(C(=O)c3[nH]c(C)c(C(=O)OC(C)C)c3C)C2)c1` (stereo unspecified) gave an RP-LC retention time of 845 s.

In turn, `c1csc(-c2csc(CN3CCNCC3)n2)c1` displayed an RP-LC retention time of 548 s.

In turn, `O=C(Nc1cnc(N2CCCCCC2)nc1)c1ccc(Br)o1` came in with an RP-LC retention time of 952 s.

As to `Cc1cc(-c2cc(S(=O)(=O)NCC(C)c3ccccc3)c(C)s2)n[nH]1` (stereo unspecified), the RP-LC retention time is 890 s.

For the molecule `CCOC(=O)c1c(S(=O)(=O)N2CCC(C(=O)N3CCCC3)CC2)c(C)n(C)c1C`, the RP-LC retention time was 706 s.

Regarding `COc1cc(-c2nc3ncccn3c2NC2CCCCC2)cc(OC)c1OC`, the RP-LC retention time turned out to be 724 s.

Molecule `COc1ccc(NC(=O)N2C[C@@H](F)C[C@H]2C(=O)N2CCCCC2)cc1F` registered an RP-LC retention time of 660 s.
